According to PMC11460632, “Chemical modification of hyaluronan oligosaccharides differentially modulates hyaluronan–hyaladherin interactions” (The Journal of Biological Chemistry, 2024):
Like-named read-outs stand apart in the source and are kept apart here.

What was measured:
[1] = target: T1, recombinant human TSG-6 (Homo sapiens, UniProt P19827+P98066); experiment: In vitro HC-transfer assay (IαI + rhTSG-6, Western blot anti-HC1); type: biochemical; details: 15 μM HA, 1.8 μM IαI, rhTSG-6, 2 h at 37 °C; for Substrate for HC transfer: Table 6
T1 construct: TSG-6–mediated HC-transfer assays (using full-length TSG6); purchased R&D Systems
T1 sequence (P98066 18-277): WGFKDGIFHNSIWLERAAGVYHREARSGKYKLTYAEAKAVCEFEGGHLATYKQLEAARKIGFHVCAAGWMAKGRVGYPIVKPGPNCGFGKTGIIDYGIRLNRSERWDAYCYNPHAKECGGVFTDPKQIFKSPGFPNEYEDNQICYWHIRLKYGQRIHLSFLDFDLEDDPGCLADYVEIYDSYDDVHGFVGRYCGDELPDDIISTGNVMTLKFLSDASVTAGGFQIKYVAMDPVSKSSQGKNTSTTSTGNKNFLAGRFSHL
T1 sequence (P19827 35-672 limits assumed): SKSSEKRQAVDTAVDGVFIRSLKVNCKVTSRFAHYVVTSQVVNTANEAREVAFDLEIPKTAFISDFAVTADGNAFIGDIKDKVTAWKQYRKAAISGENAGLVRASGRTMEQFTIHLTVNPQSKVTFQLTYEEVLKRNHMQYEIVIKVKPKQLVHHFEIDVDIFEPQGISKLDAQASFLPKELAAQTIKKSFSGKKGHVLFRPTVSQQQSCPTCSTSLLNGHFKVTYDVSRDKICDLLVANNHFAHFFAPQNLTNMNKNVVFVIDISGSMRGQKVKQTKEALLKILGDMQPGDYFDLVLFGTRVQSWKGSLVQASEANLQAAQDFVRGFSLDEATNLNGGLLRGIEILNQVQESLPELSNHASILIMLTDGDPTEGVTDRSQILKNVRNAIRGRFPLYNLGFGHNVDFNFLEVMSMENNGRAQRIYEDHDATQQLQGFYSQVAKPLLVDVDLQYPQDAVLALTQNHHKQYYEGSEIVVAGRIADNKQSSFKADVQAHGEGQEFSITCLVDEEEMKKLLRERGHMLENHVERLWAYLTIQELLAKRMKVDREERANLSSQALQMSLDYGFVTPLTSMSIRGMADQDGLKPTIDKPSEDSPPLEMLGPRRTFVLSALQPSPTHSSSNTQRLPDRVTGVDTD
Description: Covalent transfer of HC from IαI onto unmodified and chemically modified HA oligosaccharides was analyzed using the assay described previously ([26]). All reactions were performed using a buffer of 20 mM Hepes, pH 7.5, 150 mM NaCl, and 5 mM MgCl2. In a “standard” assay, HA oligosaccharides were at 15 μM, human IαI ([97]) 1.8 at μM (based on a molecular weight of 180 kDa), and recombinant human TSG-6 (R&D Systems) at 2.8 μM (based on a molecular weight of 35 kDa). Reaction mixtures were analyzed by SDS-PAGE using 4 to 12% bis-tris polyacrylamide gels (Invitrogen). For Western blot analysis, proteins were transferred onto nitrocellulose membrane (GE Healthcare) and incubated with antisera against HC1 (CP7, 1:10,000; ([98])). Bound primary antibody was detected using goat-anti-rabbit IgG conjugated to IR dye (LI-COR Biosciences) and blots imaged using an Odyssey Clx near-IR fluorescence imaging system (LICOR Biosciences).

[2] = target: T2, hisCD44_HABD^20–169 (Homo sapiens, UniProt P16070); experiment: MST of HA oligosaccharides binding to hisCD44_HABD^20–169; details: for % Binding affinity hisCD44_HABD^20–169: Table 6, relative to unmodified oligosaccharide of the same length, by MST
T2 construct: A novel construct consisting of residues 20 to 169 of human CD44 and an N-terminal six-histidine tag; made in house
T2 sequence (P16070 20-169): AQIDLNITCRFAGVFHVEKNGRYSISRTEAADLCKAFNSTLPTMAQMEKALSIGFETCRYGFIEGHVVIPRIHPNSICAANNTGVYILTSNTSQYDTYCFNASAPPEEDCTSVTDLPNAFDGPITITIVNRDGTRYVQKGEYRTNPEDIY
Description: For hisCD44_HABD^20–169, interactions with HA oligosaccharides were assessed using MST. Protein (200 nM) was labeled with 5 μM red-Tris-NTA-650 dye following the manufacturer’s instructions in 10 mM Hepes, pH 7.4, 150 mM NaCl, 0.05% (v/v) Tween-20 (interaction buffer). Stock solutions of HA oligosaccharides (5 mM in interaction buffer) were serially diluted (1:1 in interaction buffer) 16 times before each concentration was mixed with an equal volume of labeled protein (10 nM final concentration hisCD44_HABD^20–169). Samples were loaded into standard glass capillaries (NanoTemper) and thermophoresis measured at 25 °C (with active temperature control) using a Monolith NT.115pico instrument (NanoTemper) running NT Control software (version 1.0.1). All experiments were performed in triplicate and data analyzed with the “KD fit model” in the NT Analysis software (version 2.0.2).

[3] = target: T3, Link_TSG6 (Homo sapiens, UniProt P98066); experiment: ITC of HA oligosaccharides binding to Link_TSG6; details: for N / ΔG / ΔH / −TΔS / Kd: 25 °C, 5 mM MES pH 6.0, mean ± SEM; for N: 0.029 mM Link_TSG6, 0.29 mM oligosaccharide; for N / Kd: four titrations; for Kd: read-out: KD; for % Binding affinity Link_TSG6: Table 6, relative to unmodified oligosaccharide of the same length, by ITC
T3 construct: made in house
T3 sequence (P98066 36-129 limits assumed): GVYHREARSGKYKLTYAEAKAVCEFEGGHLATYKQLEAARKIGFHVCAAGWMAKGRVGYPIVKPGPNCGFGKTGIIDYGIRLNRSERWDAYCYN
Description: ITC experiments were performed using a MicroCal PEAQ-ITC instrument (Malvern Instruments). Oligosaccharide stock solutions were prepared at 0.29 mM (in 5 mM MES, pH 6.0) and injected (18 × 2 μl with 120 s spacing between injections) into the cell containing ∼200 μl Link_TSG6 (0.029 mM) in matched buffer at 25 °C. Data were fit to a one site binding model, after subtracting the heats from the last three injections to account for heat of dilution of the oligosaccharide into buffer. Each oligosaccharide was analyzed in four independently performed ITC experiments.

[4] = test system: Link_TSG6; parameters: method as in PMID 24403066; details: cited from earlier work
[5] = Table 5, MST, 10 mM Hepes pH 7.5, 150 mM NaCl, 0.05% Tween-20, 25 °C, mean ± SD, three titrations, read-out: KD

Row | Compound | Substrate for HC transfer [1] | % of binding to hisCD44_HABD^20–169 compared to the unmodified oligosaccharide of the same length ([2]; MST) | % HAx^AN: percentage of binding affinity (KB) compared to the unmodified oligosaccharide of the same length ([2]; Table 5, MST) | Kd [2, 5] | % Binding affinity hisCD44_HABD^20–169 [2] | N ([3]; Table 4, ITC) | ΔG ([3]; Table 4, ITC) | ΔH ([3]; Table 4, ITC) | −TΔS ([3]; Table 4, ITC) | Kd ([3]; Table 4, ITC) | % Binding affinity Link_TSG6 [3] | further results
1 | CC(=O)N[C@H]1[C@H](O[C@H]2[C@H](O)[C@@H](O)[C@H](O[C@H]3[C@H](O)[C@@H](CO)O[C@@H](O[C@H]4[C@H](O)[C@@H](O)[C@H](O[C@H]5[C@H](O)[C@@H](CO)O[C@@H](O[C@H]6[C@H](O)[C@@H](O)[C@H](O[C@@H]([C@H](O)[C@H](O)CO)[C@H](CNc7cccc8c7CCC8)NC(C)=O)O[C@@H]6C(=O)O)[C@@H]5NC(C)=O)O[C@@H]4C(=O)O)[C@@H]3NC(C)=O)O[C@@H]2C(=O)O)O[C@H](CO)[C@@H](O)[C@@H]1O[C@@H]1O[C@H](C(=O)O)[C@@H](O)[C@H](O)[C@H]1O [HA8-4AI] | Yes | 37% | 37% | 139 ± 43 µM | 37% | 1.01 ± 0.02 | -9.15 ± 0.16 kcal/mol | -7.02 ± 0.40 kcal/mol | −2.13 ± 0.53 kcal•mol^a1 | 0.22 ± 0.05 µM | 141% | –
2 | CC(=O)N[C@H]1[C@H](O[C@H]2[C@H](O)[C@@H](O)[C@H](O[C@H]3[C@H](O)[C@@H](CO)O[C@@H](O[C@H]4[C@H](O)[C@@H](O)[C@H](O[C@H]5[C@H](O)[C@@H](CO)O[C@@H](O[C@H]6[C@H](O)[C@@H](O)[C@H](O[C@@H]([C@H](O)[C@H](O)CO)[C@H](CNc7ccc8c(c7)CCC8)NC(C)=O)O[C@@H]6C(=O)O)[C@@H]5NC(C)=O)O[C@@H]4C(=O)O)[C@@H]3NC(C)=O)O[C@@H]2C(=O)O)O[C@H](CO)[C@@H](O)[C@@H]1O[C@@H]1O[C@H](C(=O)O)[C@@H](O)[C@H](O)[C@H]1O [HA8-5AI] | Yes | 96% | 96% | 54 ± 10 µM | 96% | 0.97 ± 0.02 | -9.34 ± 0.11 kcal/mol | -7.43 ± 0.25 kcal/mol | −1.91 ± 0.33 kcal•mol^a1 | 0.15 ± 0.03 µM | 207% | % of binding to Link_TSG6 compared to the unmodified oligosaccharide of the same length ([3]; ITC): 207%
3 | CC(=O)N[C@H]1[C@H](O[C@H]2[C@H](O)[C@@H](O)[C@H](O[C@H]3[C@H](O)[C@@H](CO)O[C@@H](O[C@H]4[C@H](O)[C@@H](O)[C@H](O[C@H]5[C@H](O)[C@@H](CO)O[C@@H](O[C@H]6[C@H](O)[C@@H](O)[C@H](O[C@H]7[C@H](O)[C@@H](CO)OC(O)[C@@H]7NC(C)=O)O[C@@H]6C(=O)O)[C@@H]5NC(C)=O)O[C@@H]4C(=O)O)[C@@H]3NC(C)=O)O[C@@H]2C(=O)O)O[C@H](CO)[C@@H](O)[C@@H]1O[C@@H]1O[C@H](C(=O)O)[C@@H](O)[C@H](O)[C@H]1O (stereo partly drawn) [HA8^AN, reference compound] | Yes | – | 100% | 51 ± 5 µM | 100% | – | – | – | −1.63 ± 0.24 kcal•mol^a1 | – | 100% | Fold greater affinity for Link_TSG6 (compared to HA8^AN) [4]: 1.9 fold; Activity as substrate for HC transfer (text) ([1]; Western blot anti-HC1): acted as substrates; Kd ([2]; MST, read-out: KD for hisCD44_HABD^20–169): ~50 µM; % HAn^AN: percentage of binding affinity (KB) compared to the unmodified oligosaccharide of the same length ([2]; Table 2, MST): 100%; Kd ([2]; Table 2, MST, 10 mM Hepes pH 7.5, 150 mM NaCl, 0.05% Tween-20, 25 °C, mean (±SD), three titrations, read-out: KD): 51 µM; N ([3]; Table 1, ITC): 0.98 ± 0.01; ΔG ([3]; Table 1, ITC): -8.89 ± 0.03 kcal/mol; ΔH ([3]; Table 1, ITC): -7.26 ± 0.20 kcal/mol; −TΔS ([3]; Table 1, ITC): -1.63 ± 0.24 kcal/mol; Kd ([3]; Table 1, ITC): 0.31 ± 0.02 µM
